Patent publication US6998415B2, “Substituted sulfonylphenylheterocycles as cyclooxygenase-2 and 5-lipoxygenase inhibitors” (Pharmacia Corporation, priority 1996, dated 2006)

What was measured:
5-lipoxygenase (5-LO) = biological target: T1, 5-lipoxygenase (5-LO) (Homo sapiens, UniProt P09917); experiment: Assay for 5-lipoxygenase activity: calcium ionophore-induced LTB4 production in human whole blood; assay type: cell-based; conditions: A-23187 (20 μg/ml)-induced LTB4 in human whole blood; mean IC50
T1 construct: calcium ionophore-induced Leukotriene B4 (LTB4) production in human whole blood; endogenous in cells; host or cells: human whole blood (healthy donors), diluted 1:4 in RPMI 1640
T1 sequence (P09917 1-674): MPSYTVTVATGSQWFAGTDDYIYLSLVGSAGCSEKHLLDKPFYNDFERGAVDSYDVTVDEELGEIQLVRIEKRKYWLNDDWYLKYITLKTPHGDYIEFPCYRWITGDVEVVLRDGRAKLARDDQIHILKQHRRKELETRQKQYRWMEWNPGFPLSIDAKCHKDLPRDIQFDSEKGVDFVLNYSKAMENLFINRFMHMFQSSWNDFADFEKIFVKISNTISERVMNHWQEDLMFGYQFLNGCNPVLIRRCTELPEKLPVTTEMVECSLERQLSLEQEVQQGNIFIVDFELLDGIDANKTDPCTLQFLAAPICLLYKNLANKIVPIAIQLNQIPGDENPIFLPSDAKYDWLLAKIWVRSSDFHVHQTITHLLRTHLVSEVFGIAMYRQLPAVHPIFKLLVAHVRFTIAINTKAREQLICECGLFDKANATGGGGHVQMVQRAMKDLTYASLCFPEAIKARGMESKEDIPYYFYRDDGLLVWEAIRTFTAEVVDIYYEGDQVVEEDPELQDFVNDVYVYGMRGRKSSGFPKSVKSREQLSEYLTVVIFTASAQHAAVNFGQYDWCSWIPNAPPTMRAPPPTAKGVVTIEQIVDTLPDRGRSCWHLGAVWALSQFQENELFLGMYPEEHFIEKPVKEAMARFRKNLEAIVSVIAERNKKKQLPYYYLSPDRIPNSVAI
Description: Assay for 5-Lipoxygenase Activity
The 5-lipoxygenase (5-LO) activity of the compounds were determined by the calcium ionophore-induced Leukotriene B4 (LTB4) production in human whole blood. Venous blood was collected from healthy human donors using heparin as an anti-coagulant. Human blood samples (0.2 ml of a 1:4 dilution in RPMI 1640 medium) were incubated in 96-well culture plates for 15 minutes at 37° C. with test compounds dissolved in ethanol (EtOH; final concentration<1%), or vehicle. Typically 7 concentrations of test compounds were examined in duplicate. A-23187 [Sigma] was added to the blood to a final concentration of 20 μg/ml, and the mixtures were incubated for 10 minutes at 37° C. The reaction was stopped by placing the samples on ice. The samples were then centrifuged at 800×g at 4° C. for 10 minutes to pellet the cells, and the supernatants were recovered for quantitation of LTB4 by LISA (Cayman Chemical Co.; sensitivity 3 pg/ml). IC50's were estimated from a four parameter logistic model with two parameters fixed, the minimum (0% inhibition) and maximum (100% inhibition). The IC50 value is the concentration that produces 50% inhibition between the fixed values of the minimum and maximum. Data is reported as the mean IC50 for each compound.

COX-2 = biological target: T2, COX-2 (UniProt P35354); experiment: Assay for COX-2 activity in vitro (PGE2 ELISA, recombinant enzyme); assay type: biochemical, human or murine; conditions: recombinant COX-2, arachidonic acid 10 μM, pre-incubation 10–20 minutes
T2 sequence (P35354 1-604): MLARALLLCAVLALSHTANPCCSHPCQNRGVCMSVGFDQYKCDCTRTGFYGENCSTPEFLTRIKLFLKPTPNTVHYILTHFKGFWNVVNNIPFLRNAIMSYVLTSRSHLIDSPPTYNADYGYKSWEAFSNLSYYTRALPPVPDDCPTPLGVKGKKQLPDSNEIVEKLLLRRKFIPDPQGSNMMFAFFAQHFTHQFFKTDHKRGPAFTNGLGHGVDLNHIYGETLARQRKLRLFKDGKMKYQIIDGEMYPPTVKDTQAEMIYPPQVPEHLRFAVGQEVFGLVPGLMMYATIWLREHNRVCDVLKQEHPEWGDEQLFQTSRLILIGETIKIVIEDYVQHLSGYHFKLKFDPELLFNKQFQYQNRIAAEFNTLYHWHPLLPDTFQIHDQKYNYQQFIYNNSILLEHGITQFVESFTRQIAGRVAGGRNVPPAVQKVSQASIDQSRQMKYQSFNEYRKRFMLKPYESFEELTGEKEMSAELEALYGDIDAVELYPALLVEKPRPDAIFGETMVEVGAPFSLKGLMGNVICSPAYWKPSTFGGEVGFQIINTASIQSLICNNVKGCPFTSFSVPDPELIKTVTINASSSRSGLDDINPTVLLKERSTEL
Description: Evaluation of COX-1 and COX-2 Activity in vitro
The COX-2 inhibit on activity of the compounds or this invention illustrated in the Examples was determined by the following methods. a. Preparation of Recombinant COX Baculoviruses
(§1) Recombinant COX-1 and COX-2 were prepared as described by Gierse et al, [J. Biochem., 305, 479–84 (1995)]. A 2.0 kb fragment containing the coding region of either human or murine COX-1 or human or murine COX-2 was cloned into a BamHI site of the baculovirus transfer vector pVL1393 (Invitrogen) to generate the baculovirus transfer vectors for COX-1 and COX-2 in a manner similar to the method of D. R. O'Reilly et al (Baculovirus Expression Vectors: A Laboratory Manual (1992)). Recombinant baculoviruses were isolated by transfecting 4 μg of baculovirus transfer vector DNA into SF9 insect cells (2×10^8) along with 200 ng of linearized baculovirus plasmid DNA by the calcium phosphate method. See M. D. Summers and G. E. Smith, A Manual of Methods for Baculovirus Vectors and Insect Cell Culture Procedures, Texas Agric. Exp. Station Bull. 1555 (1987). Recombinant viruses were purified by three rounds of plaque purification and high titer (10^7–10^8 pfu/ml) stocks of virus were prepared. For large scale production, SF9 insect cells were infected in 10 liter fermentors (0.5×10^6/ml) with the recombinant baculovirus stock such that the multiplicity of infection was 0.1. After 72 hours the cells were centrifuged and the cell pellet homogenized in Tris/Sucrose (50 mM: 25%, pH 8.0) containing 1% 3-[(3-cholamidopropyl)dimethylammonio]-1-propanesulfonate (CHAPS). The homogenate was centrifuged at 10,000×G for 30 minutes, and the resultant supernatant was stored at −80° C. before being assayed for COX activity. […]
(§2) b. Assay for COX-1 and COX-2 Activity
(§3) COX activity was assayed as PGE2 formed/μg protein/time using an ELISA to detect the prostaglandin released. CHAPS-solubilized insect cell membranes containing the appropriate COX enzyme were incubated in a potassium phosphate buffer (50 mM, pH 8.0) containing epinephrine, phenol, and heme with the addition of arachidonic acid (10 μM). Compounds were pre-incubated with the enzyme for 10–20 minutes prior to the addition of arachidonic acid. Any reaction between the arachidonic acid and the enzyme was stopped after ten minutes at 37° C./room temperature by transferring 40 μl of reaction mix into 160 μl ELISA buffer and 25 μM indomethacin. The PGE2 formed was measured by standard ELISA technology (Cayman Chemical).

COX-1 = COX-1 (UniProt P23219); experiment: Assay for COX-1 activity in vitro (PGE2 ELISA, recombinant enzyme); assay type: biochemical, human or murine; conditions: recombinant COX-1, arachidonic acid 10 μM, pre-incubation 10–20 minutes
Description: Evaluation of COX-1 and COX-2 Activity in vitro a. Preparation of Recombinant COX Baculoviruses
as §1, §2, §3

[1] = tested on: rat paw edema (carrageenan foot edema); experiment: Rat carrageenan foot pad edema test; assay type: in vivo, rat (male Sprague-Dawley); conditions: dosed orally 1 h before carrageenan, foot volume 3 h after carrageenan
Description: Rat Carrageenan Foot Pad Edema Test
The carrageenan foot edema test was performed with materials, reagents and procedures essentially as described by winter, et al., (Proc. Soc. Exp. Biol. Med., 111, 544 (1962)). Male Sprague-Dawley rats were selected in each group so that the average body weight was as close as possible. Rats were fasted with free access to water for over sixteen hours prior to the test. The rats were dosed orally (1 mL) with compounds suspended in vehicle containing 0.5% methylcellulose and 0.025% surfactant, or with vehicle alone. One hour later a subplantar injection of 0.1 mL of 1% solution of carrageenan/sterile 0.9% saline was administered and the volume of the injected foot was measured with a displacement plethysmometer connected to a pressure transducer with a digital indicator. Three hours after the injection of the carrageenan, the volume of the foot was again measured. The average foot swelling in a group of drug-treated animals was compared with that of a group of placebo-treated animals and the percentage inhibition of edema was determined (Otterness and Bliven, Laboratory Models for Testing NSAIDs, in Non-steroidal Anti-Inflammatory Drugs, (J. Lombardino, ed. 1985)).

| Compound | IC50 (5-lipoxygenase (5-LO)) [µM] | IC50 (COX-2) [µM] | IC50 (COX-1) [µM] | RAT PAW EDEMA % Inhibition @ 10 mg/kg body weight [1] [%] | melting point [°C] |
| --- | --- | --- | --- | --- | --- |
| COC1(c2cc(F)cc(OCc3nc(-c4ccc(F)cc4)c(-c4ccc(S(C)(=O)=O)cc4)o3)c2)CCOCC1 [Example 3, 4-(4-Fluorophenyl)-2-[[3-fluoro-5-(3,4,5,6-tetrahydro-4-methoxy-2H-pyran-4-yl)phenoxy)methyl]-5-(4-(methylsulfonyl)phenyl)oxazole] | 0.02 | < 0.1 | > 100 | 15 |  |
| COC1(c2cccc(CSCCc3nc(-c4ccccc4)c(-c4ccc(S(N)(=O)=O)cc4)o3)c2)CCOCC1 [Example 19, 4-[2-[[[3-(3,4,5,6-Tetrahydro-4-methoxypyran-4-yl)phenylmethyl]thio]ethyl]-4-phenyloxazol-5-yl]benzenesulfonamide] | > 10 | < 0.1 | 2.3 |  | 60.9 to 66.4 |
| COC1(c2cccc(CSc3nc(-c4ccccc4)c(-c4ccc(S(N)(=O)=O)cc4)o3)c2)CCOCC1 [Example 21] | > 10 | < 0.1 | 2.6 |  | 74.7 to 78.5 |
